The values below come from US11584765B2 (priority 2017, dated 2023).

The test system of the assay is C57BL/6 mice. Kind of assay: animal or person. The format is in vivo. Conditions: Mus musculus, sc, 0.5 h, s.c. administration, 30 min, 55° C. water, read-out: ED50 (mg/kg) at 30 min on C57BL/6 mice in Warm-water Tail-flick Test.

`CC(=O)Nc1ccc(CN2CC[C@@](CCc3ccccc3)([C@@H]3C=CCO3)C2)cc1` (single isomer, unassigned) [Compound 258]: the ED50 is less than 10 mg/kg.
The value for `CC(=O)Nc1ccc(CN2CC[C@@](CCc3ccccc3)([C@H]3C=CCO3)C2)cc1` (single isomer, unassigned) [Compound 259] was less than 10 mg/kg; that for `CC(=O)Nc1ccc(CN2CC[C@](CCc3ccccc3)([C@@H]3C=CCO3)C2)cc1` (single isomer, unassigned) [Compound 260] was greater than 10 mg/kg.
The value for `CC(=O)Nc1ccc(CN2CC[C@](CCc3ccccc3)([C@H]3C=CCO3)C2)cc1` (single isomer, unassigned) [Compound 261] was greater than 10 mg/kg.
The value for `C[C@H](O)[C@]1(CCc2cccs2)CCN(Cc2cccnc2)C1` (single isomer, unassigned) [Compound 422] was less than 10 mg/kg; that for `C[C@H](O)[C@@]1(CCc2cccs2)CCN(Cc2cccnc2)C1` (single isomer, unassigned) [Compound 423] was less than 10 mg/kg; that for `C[C@@H](O)[C@]1(CCc2cccs2)CCN(Cc2cccnc2)C1` (single isomer, unassigned) [Compound 424] was less than 10 mg/kg.
`CCOC(C)[C@@]1(CCc2cccs2)CCN(C(C)(C)c2ccc(C)nc2)C1` (single isomer, unassigned) [Compound 425, 5-(2-((S)-3-((S or R)-1-ethoxyethyl)-3-(2-(thiophen-2-yl)ethyl)pyrrolidin-1-yl)propan-2-yl)-2-methylpyridine]: the ED50 is less than 10 mg/kg.
On to `CCOCC1(CCc2cccs2)CCN(Cc2ccc(NC(C)=O)cc2)C1` (stereo in doubt) [Compound 325, (R)-N-(4-((3-(ethoxymethyl)-3-(2-(thiophen-2-yl)ethyl)pyrrolidin-1-yl)methyl)phenyl)acetamide], for which the ED50 was less than 10 mg/kg.
The value for `CC(=O)Nc1ccc(CN2CCC(CCc3ccccc3)(c3ncc[nH]3)CC2)cc1` [Compound 1] was greater than 10 mg/kg; that for `CC(=O)Nc1ccc(CN2CCC(CCc3ccccc3)(c3cccs3)CC2)cc1` [Compound 2] was greater than 10 mg/kg; that for `CC(=O)Nc1ccc(CN2CCC(CCc3ccccc3)(c3ccsc3)CC2)cc1` [Compound 3] was greater than 10 mg/kg.
The value for `CC(=O)Nc1ccc(CN2CCC(CCc3ccccc3)(c3ccccc3)CC2)cc1` [Compound 4] was greater than 10 mg/kg; that for `CC(=O)Nc1ccc(CN2CCC(CCc3ccccc3)(c3ccccn3)CC2)cc1` [Compound 5] was less than 10 mg/kg; that for `CC(=O)Nc1ccc(CN2CCC(CCc3ccccc3)(c3cccnc3)CC2)cc1` [Compound 6] was greater than 10 mg/kg.
The value for `CC(=O)Nc1ccc(CN2CCC(CCc3ccccc3)(c3ccncc3)CC2)cc1` [Compound 7] was greater than 10 mg/kg.
Consider `CC(=O)Nc1ccc(CN2CCC(CCc3ccccc3)(c3nncs3)CC2)cc1` [Compound 8], for which the ED50 was greater than 10 mg/kg.
With `CC(=O)Nc1ccc(CN2CCC(CCc3ccccc3)(c3nnco3)CC2)cc1` [Compound 9], the ED50 is greater than 10 mg/kg.
The value for `CC(=O)Nc1ccc(CN2CCC(CCc3ccccc3)(c3ncon3)CC2)cc1` [Compound 10] was greater than 10 mg/kg.
The value for `CC(=O)Nc1ccc(CN2CCC(CCc3ccccc3)(c3noc(C)n3)CC2)cc1` [Compound 11] was greater than 10 mg/kg; that for `CC(=O)Nc1ccc(CN2CCC(CCc3ccccc3)(c3nnc(C)o3)CC2)cc1` [Compound 12, N-(4-((4-(5-methyl-1,3,4-oxadiazol-2-yl)-4-phenethylpiperidin-1-yl)methyl)phenyl)acetamide] was greater than 10 mg/kg.
The value for `CC(=O)Nc1ccc(CN2CCC(CCc3ccccc3)(c3nnc(C)s3)CC2)cc1` [Compound 13, N-(4-((4-(5-methyl-1,3,4-thiadiazol-2-yl)-4-phenethylpiperidin-1-yl)methyl)phenyl)acetamide] was greater than 10 mg/kg; that for `CC(=O)Nc1ccc(CN2CCC(Cc3ccccc3)(c3ccccn3)CC2)cc1` [Compound 14, N-(4-((4-benzyl-4-(pyridin-2-yl)piperidin-1-yl)methyl)phenyl)acetamide] was greater than 10 mg/kg.
`CC(=O)Nc1ccc(CN2CCC(CCCc3ccccc3)(c3ccccn3)CC2)cc1` [Compound 15, N-(4-((4-(3-phenylpropyl)-4-(pyridin-2-yl)piperidin-1-yl)methyl)phenyl)acetamide]: the ED50 was greater than 10 mg/kg.
The value for `CC(=O)Nc1ccc(CN2CCC(CCc3ccccn3)(c3ccccn3)CC2)cc1` [Compound 16, N-(4-((4-(pyridin-2-yl)-4-(2-(pyridin-2-yl)ethyl)piperidin-1-yl)methyl)phenyl)acetamide] was greater than 10 mg/kg; that for `CC(=O)N(C)c1ccc(CN2CCC(CCc3ccccc3)(c3ccccn3)CC2)cc1` [Compound 17, N-methyl-N-(4-((4-phenethyl-4-(pyridin-2-yl)piperidin-1-yl)methyl)phenyl)acetamide] was greater than 10 mg/kg.
As to `CC(C)C(=O)Nc1ccc(CN2CCC(CCc3ccccc3)(c3ccccn3)CC2)cc1` [Compound 18, N-(4-((4-phenethyl-4-(pyridin-2-yl)piperidin-1-yl)methyl)phenyl)iso-butyramide], the ED50 was greater than 10 mg/kg.
For `CCC(=O)Nc1ccc(CN2CCC(CCc3ccccc3)(c3ccccn3)CC2)cc1` [Compound 19, N-(4-((4-phenethyl-4-(pyridin-2-yl)piperidin-1-yl)methyl)phenyl)pro-pionamide], the ED50 was greater than 10 mg/kg.
The value for `CCCCC(=O)Nc1ccc(CN2CCC(CCc3ccccc3)(c3ccccn3)CC2)cc1` [Compound 20, N-(4-((4-phenethyl-4-(pyridin-2-yl)piperidin-1-yl)methyl)phenyl)pen-tanamide] was greater than 10 mg/kg; that for `CC(C)CCC(=O)Nc1ccc(CN2CCC(CCc3ccccc3)(c3ccccn3)CC2)cc1` [Compound 21, 4-methyl-N-(4-((4-phenethyl-4-(pyridin-2-yl)piperidin-1-yl)methyl)phenyl)pen-tanamide] was greater than 10 mg/kg.
As to `CCOC(=O)Nc1ccc(CN2CCC(CCc3ccccc3)(c3ccccn3)CC2)cc1` [Compound 22, ethyl 4-((4-phenethyl-4-(pyridin-2-yl)piperidin-1-yl)methyl)phenylcarbamate], the ED50 was greater than 10 mg/kg.
The value for `NC(=O)Nc1ccc(CN2CCC(CCc3ccccc3)(c3ccccn3)CC2)cc1` [Compound 23, 1-(4-((4-phenethyl-4-(pyridin-2-yl)piperidin-1-yl)methyl)phenyl)urea] was greater than 10 mg/kg.
Regarding `O=C(Nc1ccc(CN2CCC(CCc3ccccc3)(c3ccccn3)CC2)cc1)c1ccccc1` [Compound 24, N-(4-((4-phenethyl-4-(pyridin-2-yl)piperidin-1-yl)methyl)phenyl)benz-amide], the ED50 was greater than 10 mg/kg.
With `CNc1ccc(CN2CCC(CCc3ccccc3)(c3ccccn3)CC2)cc1` [Compound 25, N-methyl-4-((4-phenethyl-4-(pyridin-2-yl)piperidin-1-yl)methyl)aniline], the ED50 was greater than 10 mg/kg.
Take `c1ccc(CCC2(c3ccccn3)CCN(Cc3ccccc3)CC2)cc1` [Compound 26, 2-(1-benzyl-4-phenethylpiperidin-4-yl)pyridine]: the ED50 is greater than 10 mg/kg.
The value for `COC(=O)C1(CCc2ccccc2)CN(Cc2ccc(NC(C)=O)cc2)C1.Cl` [Compound 27, methyl 1-(4-acetamidobenzyl)-3-phenethylazetidine-3-carboxylate HCl] was greater than 10 mg/kg.
